Measurements as given in patent publication US7022720B2, “Synthetic diazonamides as novel anti-mitotic agents” (Board of Regents, The University of Texas System, priority 2001, dated 2006).
Read-outs that look alike come from different tables or passages of the source.

Assays:
OVCAR-3 cells [1] = experiment: In vitro cytotoxicity assay (Promega CellTiter-Glo) in OVCAR-3; format: cell-based, human
Method: A growth inhibition study was also conducted using OVCAR-3 (a human ovarian adenocarcinoma) cells. Human ovarian adenocarcinoma OVCAR-3 cells are treated with diazonamide and control compounds for 48 hours and evaluated for cell viability using the Promega CellTiter-Glo™ Assay (Promega, Madison, Wis.). This assay uses luciferase to measure ATP as indicator of metabolically active cells.

SK-MEL-5 cells = experiment: MTT assay in SK-MEL-5; format: cell-based, human; conditions: SK-MEL-5, MTT, FIG. 13
Text: This assay measures cellular viability and proliferation based on the ability of live cells to take up and cleave a tetrazolium salt to generate a colored product.

BSC-1 cells = experiment: Immunofluorescence of alpha tubulin in BSC-1 cells after thymidine block; format: cell-based, African Green Monkey; conditions: BSC-1, 100 nM, 12 hours after thymidine block, FIG. 16
Method: Immunofluorescence was also performed on JL-9, JL-10, taxol and vinblastine-treated BSC-1 cells subjected to thymidine block. BCS-1 African Green Monkey kidney cells were treated for 18 hours in culture medium containing 2 mM thymidine and then returned to normal medium containing 100 nM of taxol, vinblastine, JL-10 (control) or JL-9 for 12 hours. During the last 30 minutes, Hoecht's dye was added to 100 nM to stain chromosomes. Cells were fixed in cold methanol and stained with antibody specific for alpha tubulin. Images of the organization of microtubules in spindles were collected with a laser scanning confocal microscope using a single 488 nm excitation wavelength.

HCT-116 cells [2] = format: cell-based, human; conditions: 30 nM, 12-48 hours, FIG. 14
Method: FACS Analysis was performed on HCT-116 cells to examine the effect of JL-9 on mitosis. 150,000 HCT-116 cells were incubated per well with media into six well tissue culture plates. Cells were allowed to adhere for 16–18 hours. Media containing 0.01% ethanol (vehicle control), 30 nanomolar (nM) taxol, 30 nM vinblastine and 30 nM JL-9 was added to cells and incubated for 12, 24, 36, or 48 hours. At these time points, cells were harvested with 0.25% trypsin 1 mM EDTA, and transferred to 1.5 ml Eppendorf tubes. Cells were pelleted and washed twice with 1×PBS. Cells were then fixed in −20° C. 100% ethanol and stored at 4° C. Cells were pelleted from 100% ethanol, washed once with 1×PBS, and treated with Vindelov's propidium iodide solution (50 ug/ml propidium iodide, 0.01 mM NaCl, 0.1% IPEGAL, 0.01 mg RNase) and 1 mg/ml RNAse for 30 minutes at 37° C. Propidium iodide is a fluorescent marker that binds to nucleotides. It can be used with FACS scan analysis to determine the ploidy of a population of cells. FACS scan analysis was performed using […] FACScan instrument. Data was analyzed using Cell Quest software.

HCT-116 cells [3] = conditions: HCT-116 human colorectal carcinoma line; cited from earlier work
OVCAR-3 cells [4] = experiment: Indirect immunofluorescence of tubulin cytoskeleton in OVCAR-3; format: cell-based, human; conditions: OVCAR-3, 12 or 23 hours, FIGS. 15D and 15E
Method: Immunofluorescence was performed on JL-9, taxol, vinblastine, control-treated OVCAR-3 cells to examine their effects on tubulin cytoskeleton. Cells were grown on 2 cm glass cover slips in tissue culture wells. Media containing JL-9, vinblastine, or taxol was added at various concentrations and incubated for 12 or 23 hours. Hoescht […] nuclear dye was added directly to the media (1.5 ug/ml) and incubated at 37° C. for 30 minutes. Coverslips were washed 3× with 1×PBS and fixed for 10 minutes with −20C 100% methanol. Coverslips were washed 3× with 1×PBS/1% BSA and treated directly with a 1/2000 dilution of anti-α-tubulin antibody (mouse anti-human). Coverslips were washed 3× with 1×PBS/1% BSA and treated with 1/500 dilution of fluorescently conjugated goat anti-mouse secondary antibody (Alexa Fluor 488). Coverslips were washed 3× with 1×PBS/1% BSA and mounted on microscope slides using mounting media (Aqua Poly Mount). Images were obtained using Zeiss Axiovert 100M digital light and confocal microscopy.

[5] = Comparison of synthesized compound with natural diazonamide (handling stability); format: physicochemical
Text: Characteristics of synthesized diazonamide compound, JL-9, were compared to naturally occurring diazonamide. […] The process completes upon attempted preparative HPLC purification of 1b (FIG. 1) under conditions identical to those used to isolate natural (−)-diazonamide A. In addition, a second degradation pathway available in this series appears as a result of the cleavage of the strained macrolactam ring through diketopiperazine formation that involves the C37 amine and the C12 amide carbonyl.

Structure (SMILES) | GI50 (OVCAR-3 cells [1]; Homo sapiens, OVCAR-3, 48 h) [nM] | cytotoxic and growth inhibitory effect (SK-MEL-5 cells) | mitotic figures / spindle organization (BSC-1 cells) | cell cycle arrest (ploidy) (HCT-116 cells [2]) | further results
CC(C)[C@H](N)C(=O)N[C@H]1Cc2ccc3c(c2)C24C5=C(N=C(O5)[C@H](C(C)C)NC1=O)c1nc(Cl)c(o1)-c1c(Cl)[nH]c5cccc(c15)-c1cccc2c1OC4O3 (stereo partly drawn) [JL-10] | 845 | inactive analogue | resembled the vehicle controls |  | 
CC(=O)O[C@H]1C(=O)[C@@]2(C)[C@H]([C@H](OC(=O)c3ccccc3)[C@]3(O)C[C@H](OC(=O)[C@H](O)[C@@H](NC(=O)c4ccccc4)c4ccccc4)C(C)=C1C3(C)C)[C@]1(OC(C)=O)CO[C@@H]1C[C@@H]2O [paclitaxel, reference compound] |  |  | Mitotic figures were frequently found | arrests HCT-116 cells in the tetraploid (4n) state | GI50 (OVCAR-3 cells [1]; Homo sapiens, OVCAR-3, 48 hours, CellTiter-Glo, read-out: GI50): 8 nM
CC(C)[C@H](O)C(=O)N[C@H]1Cc2ccc3c(c2)[C@]24C5=C(N=C(O5)[C@H](C(C)C)NC1=O)c1nc(Cl)c(o1)-c1c(Cl)[nH]c5cccc(c15)-c1cccc2c1N[C@@H]4O3 [natural diazonamide, diazonamide A, reference compound] |  |  |  |  | GI50 (OVCAR-3 cells [1]; OVCAR-3, 48 hours, CellTiter-Glo, read-out: GI50): 8 nM; GI50 (50% growth inhibitory concentration) (HCT-116 cells [3]): less than 15 ng/ml
CC(C)[C@H](O)C(=O)N[C@H]1Cc2ccc3c(c2)C24C5=C(N=C(O5)[C@H](C(C)C)NC1=O)c1nc(Cl)c(o1)-c1c(Cl)[nH]c5cccc(c15)-c1cccc2c1OC4O3 (stereo partly drawn) [JL-9] | 16 | potent cytotoxic and growth inhibitory effect | Mitotic figures were frequently found | arrests HCT-116 cells in the tetraploid (4n) state | fold more potent than JL-10 at inhibiting growth (OVCAR-3 cells [1]; OVCAR-3 in vitro): > 50 fold; potency relative to natural diazonamide A and paclitaxel (OVCAR-3 cells [1]; OVCAR-3 in vitro): equipotent to natural diazonamide A and paclitaxel; effect on tubulin cytoskeleton (OVCAR-3 cells [4]): aberrant effects on the cytoskeleton and formation of abnormal mitotic spindles; stability on handling [5]: susceptible to handling
CC[C@]1(O)C[C@@H]2CN(CCc3c([nH]c4ccccc34)[C@@](C(=O)OC)(c3cc4c(cc3OC)N(C)[C@H]3[C@@](O)(C(=O)OC)[C@H](OC(C)=O)[C@]5(CC)C=CCN6CC[C@]43[C@@H]65)C2)C1 [vinblastine, reference compound] |  |  | Mitotic figures were frequently found | arrests HCT-116 cells in the tetraploid (4n) state | 
